# In US8389739B1, “Modulators of retinoid-related orphan receptor gamma” (Orphagen Pharmaceuticals, priority 2006, dated 2013):
# T1: hPPARδ (Homo sapiens, UniProt Q03181)
# T1 construct: 138-441; expressed in transfected cells; host or cells: CHO cells, transient transfection
# T1 sequence (Q03181 138-441): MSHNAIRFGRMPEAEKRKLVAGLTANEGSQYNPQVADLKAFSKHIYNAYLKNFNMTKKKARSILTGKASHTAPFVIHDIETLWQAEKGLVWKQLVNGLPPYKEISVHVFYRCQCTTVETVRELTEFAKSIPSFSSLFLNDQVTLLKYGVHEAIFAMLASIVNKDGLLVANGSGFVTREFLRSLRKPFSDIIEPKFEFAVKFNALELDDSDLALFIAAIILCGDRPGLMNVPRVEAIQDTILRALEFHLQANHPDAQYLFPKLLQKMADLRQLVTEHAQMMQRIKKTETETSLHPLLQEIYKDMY
# B1: IL-12: exogenous cytokine, stimulates TH1 differentiation (protein, UniProt P29459 23-219; P29460 23-328, looked up)
# Interleukin-12 subunit alpha: RNLPVATPDPGMFPCLHHSQNLLRAVSNMLQKARQTLEFYPCTSEEIDHEDITKDKTSTVEACLPLELTKNESCLNSRETSFITNGSCLASRKTSFMMALCLSSIYEDLKMYQVEFKTMNAKLLMDPKRQIFLDQNMLAVIDELMQALNFNSETVPQKSSLEEPDFYKTKIKLCILLHAFRIRAVTIDRVMSYLNAS
# Interleukin-12 subunit beta: IWELKKDVYVVELDWYPDAPGEMVVLTCDTPEEDGITWTLDQSSEVLGSGKTLTIQVKEFGDAGQYTCHKGGEVLSHSLLLLHKKEDGIWSTDILKDQKEPKNKTFLRCEAKNYSGRFTCWWLTTISTDLTFSVKSSRGSSDPQGVTCGAATLSAERVRGDNKEYEYSVECQEDSACPAAEESLPIEVMVDAVHKLKYENYTSSFFIRDIIKPDPPKNLQLKPLKNSRQVEVSWEYPDTWSTPHSYFSLTFCVQVQGKSKREKKDRVFTDKTSATVICRKNASISVRAQDRYYSSSWSEWASVPCS
# Assays:
# liver triglycerides = test: Liver triglycerides after oral dosing in C57BL/6 mice; format: in vivo; details: Dex 12.5 mg/kg once 2 days before necropsy
# Protocol: […] A small piece of the liver (˜200 mg) was weighed and extracted to determine triglyceride content. Glycerol was liberated from liver triglycerides by hydrolysis in base. The liver fragment was incubated overnight at 55° C. in 0.35 mls of ethanolic KOH (2 parts EtOH: 1 part 30% KOH) in a closed tube. A solution of 50% ethanol in water was added to bring the volume of each tube to 1.0 ml. The solution was cleared of debris by centrifugation, and the resulting supernatant increased to 1.2 ml with further addition of 50% ethanol. Aqueous 1 M MgCl2 (215 μl) was added to 200 μl of the supernatant, and the mixture was cleared by centrifugation again after standing 10 min on ice. Glycerol levels were measured with the Sigma Free Glycerol Reagent (Sigma-Aldrich, St. Louis, Mo.) according to the manufacturer's instructions. The triglyceride concentration (in milligrams per gram of liver wet weight) was determined by assuming average molecular weight of 1000 daltons for each molecule of triglyceride.
# thymocytes = test: Thymus weight and thymocyte subpopulations after oral dosing in C57BL/6 mice; format: in vivo
# Protocol: In addition, the total number and the fraction of the major thymocyte subpopulations including CD4^+CD8^+ (DP), CD4^+CD8^- (SP4^+) and CD4^-CD8^+ (SP8^+) were measured by cell surface staining followed by FACS analysis. […] The volume of cells was adjusted to 8 mls. Debris from the thymus was allowed to settle, and a 200 μl aliquot of cells was incubated with fluorescent antibodies to CD4 and CD8 for 15 minutes at room temperature. […] Before analytical flow cytometry was carried out (FACS Calibur, Becton Dickinson), Caltag counting beads (from Invitrogen) were added to allow absolute quantitation of cell number. Thymus subpopulations were determined after gating for live cells. […] Dexamethasone reproducibly induces rapid apoptosis of DP thymocytes and reduction of thymic mass ([…], Drupt et al. 2000; Zubkova, Mostowski et al. 2005).
# hPPARδ = biological target: T1, hPPARδ; test: Crossreactive receptor transcriptional assay (Gal4 hybrid); format: cell-based
# Protocol: A firefly luciferase reporter gene for Gal4 DBD hybrid receptors, such as Gal4-RORγ, contains five copies of the Gal4 17-mer response element in its promoter and the coding sequence for firefly luciferase (pG5-luc, Promega). CHO (Chinese Hamster Ovary) cells were cultured in Ham's F12 medium supplemented with 10% fetal calf serum (Gemini Biologicals), 10 μg/ml penicillin and streptomycin, and were maintained in a humidified 37° C. incubator (Thermo Electron, Steri-Cycle) with 5% CO2. 24 hours before transfection, cells were plated in T175 flasks (5×10^6 cells/flask) or T75 flasks (1.7×10^6 cells/flask). Transient transfection of CHO cells was performed using TransIT-CHO reagents (Minis, Madison, Wis.) with a mixing ratio of 2:6:1 between plasmid DNA (in μg), TransIT-CHO (in μl) and CHO-mojo (in μl).
# Plates are maintained at 37° C. in a humidified atmosphere with 7% CO2 overnight. Four (4) hours after cell seeding, compounds dissolved in DMSO at 10 mM were added to cells at final concentrations of 20 micromolar (μM) to 20 nanomolar (nM) in 0.2% DMSO in triplicate plates. Approximately 40 hours later, cytotoxicity in the assay well was characterized by addition of the dye resazurin (O'Brien, Wilson et al. 2000) to a final concentration of 3 μM. […] Percent viability was determined as 2 hour fluorescence, minus background at t=0 hours, normalized to DMSO controls. For detection of luciferase activity, media was removed from plates after the measurement of resazurin conversion, and SteadyLite luciferase reagent (Perkin-Elmer) was added (30 μl/well). Luminescence is detected with a Victor 2-V plate reader (Perkin-Elmer) and normalized to luciferase activity of DMSO control wells alone.
# [1] = test system: TH1 cell differentiation from naïve CD4+ T cells; test: Differentiation of naïve CD4+ T cells with IL-12 (Th-1 protocol), IFN-γ staining by FACS; format: cell-based, mouse; details: Table 8; 10 ng/ml; naïve CD4 cells, 5 days; mean ±SD; no cytokine 0.21
# [2] = Dex 12.5 mg/kg once 2 days before necropsy
molecule,measurement,setting,value
"C[C@@H]1C[C@H]2[C@@H]3CCC4=CC(=O)C=C[C@]4(C)[C@@]3(F)[C@@H](O)C[C@]2(C)[C@@]1(O)C(=O)CO [Dexamethasone, dexamethasone]",Liver triglycerides,liver triglycerides,35.3 ± 8.2 mg/g
same,Frequency of DP (% of total cells),thymocytes; [2],4.2 ± 2.9%
same,Thymus weight,thymocytes; [2],49.7 µg
same,Total cells per thymus (×10^−6) DP,thymocytes; [2],1.0 ×10^−6
same,Total cells per thymus (×10^−6) SP4,thymocytes; [2],3.9 ×10^−6
same,Total cells per thymus (×10^−6) SP8,thymocytes; [2],1.2 ×10^−6
same,"effect on DP thymocytes, in words","thymocytes; dexamethasone positive control, once two days before sacrifice",virtually total depletion of DP thymocytes
"CC(C)(Oc1ccc(CCNC(=O)c2ccc(Cl)cc2)cc1)C(=O)O [Bezafibrate, bezafibrate, reference compound]",EC50,hPPARδ,> 20 µM
B1,IL-17 (%),[1],0.09 ± 0.01%
